Reference: publication PMC7822874, “Chemoprotective antimalarials identified through quantitative high-throughput screening of Plasmodium blood and liver stage parasites” (Scientific Reports, 2021)
Where two headings read alike, the source gives them in different places.

Key:
[1] = test system: P. berghei-ANKA-GFP-LucCON liver stage parasites in HepG2-A16-CD81EGFP cells; assay: P. berghei liver stage Pb-Luc assay, Method 1 (UCSD, 1536-well); format: cell-based, Plasmodium berghei; conditions: for PbLuc 1uM growth rep1 / PbLuc 1uM growth rep2 / PbLuc 3uM growth rep1 / PbLuc 3uM growth rep2 / activity at 1 µM / activity at 3 µM: average of 2 wells on a 1536 well plate; for Average P. berghei 3 µM response( %) / Average P. berghei 1 µM response (%): averaged response (percent); for Average P. berghei 1 µM response (%): the header list (r8) defines it as the 1 µM dose; for activity at 1 µM / activity at 3 µM: 48 h; for Max Resp (signal direction of the dose response): Decrease = decreasing P. berghei viability with dose, Increase = increasing signal, Inactive = no dose response
HepG2-A16-CD81EGFP cells = conditions: for HepG2 1uM growth rep1 / HepG2 1uM growth rep2: HepG2, 1 µM compound treatment (10 mM stocks); for HepG2 1uM growth rep1 / HepG2 3uM growth rep1: replicate 1, normalized; for HepG2 1uM growth rep1 / HepG2 1uM growth rep2 / HepG2 3uM growth rep1 / HepG2 3uM growth rep2: average of 2 wells; for HepG2 1uM growth rep2 / HepG2 3uM growth rep2: replicate 2, normalized; for HepG2 3uM growth rep1 / HepG2 3uM growth rep2: HepG2, 3 µM compound treatment (10 mM stocks); for Average HepG2 3 µM response( %): averaged response (percent)
[2] = test system: Plasmodium falciparum Dd2 asexual blood stage parasites; assay: microbe, parasite or virus in culture; parameters: species or system Plasmodium falciparum Dd2 in human erythrocytes; single determination (one 11-point concentration-response curve); conditions: Plasmodium falciparum, DD2, Erythrocyte, 72 h; read-out: AC50
in vitro = conditions: human; for viability at 48 h, 1 µM / viability at 48 h, 3 µM / viability at 48 h: HepG2-A16-CD81EGFP cells, uninfected
[3] = P. berghei liver stage, 1 µM compound treatment (10 mM stocks), replicate 1, normalized
[4] = P. berghei liver stage, 1 µM compound treatment (10 mM stocks), replicate 2, normalized
[5] = P. berghei liver stage, 3 µM compound treatment (10 mM stocks), replicate 1, normalized
[6] = P. berghei liver stage, 3 µM compound treatment (10 mM stocks), replicate 2, normalized
[7] = HepG2, the header list (r10) describes it as the 1 µM dose
[8] = Plasmodium berghei, 1 uM (compounds provided at 10 mM), column 11, read-out: Pb-Luc (P. berghei liver stage), % of control, lower concentration, first repeat
[9] = Plasmodium berghei, 1 uM (compounds provided at 10 mM), column 12, read-out: Pb-Luc (P. berghei liver stage), % of control, lower concentration, second repeat
[10] = Plasmodium berghei, 3 uM (compounds provided at 10 mM), column 8, read-out: Pb-Luc (P. berghei liver stage), % of control, higher concentration, first repeat
[11] = Plasmodium berghei, 3 uM (compounds provided at 10 mM), column 9, read-out: Pb-Luc (P. berghei liver stage), % of control, higher concentration, second repeat
[12] = Plasmodium berghei, Method 1, Hill fit, 50% of maximum activity response, read-out: AC50
[13] = Plasmodium berghei, Method 1, log10 of molar AC50 from Hill fit, read-out: Log AC50 (converted)

| Structure (SMILES) | AC50 [2] [µM] | activity at 1 µM [1, 8] [%] | activity at 1 µM [1, 9] [%] | activity at 3 µM [1, 10] [%] | activity at 3 µM [1, 11] [%] | viability at 48 h, 1 µM (in vitro) [%] | viability at 48 h, 3 µM (in vitro) [%] | other results |
| --- | --- | --- | --- | --- | --- | --- | --- | --- |
| COc1ccccc1[C@@]1(C)ON(c2ccccc2C(F)(F)F)C1=O [MLS002206613-01] | – | – | – | – | – | – | – | PbLuc 1uM growth rep1 [1, 3]: 129%; PbLuc 1uM growth rep2 [1, 4]: 87%; PbLuc 3uM growth rep1 [1, 5]: 95%; PbLuc 3uM growth rep2 [1, 6]: 109%; HepG2 1uM growth rep1 (HepG2-A16-CD81EGFP cells): 103%; HepG2 1uM growth rep2 (HepG2-A16-CD81EGFP cells): 96%; HepG2 3uM growth rep1 (HepG2-A16-CD81EGFP cells): 83%; HepG2 3uM growth rep2 (HepG2-A16-CD81EGFP cells): 94% |
| COc1cc(OC)c(OC)cc1CN1CCc2nc(N(C)C)[nH]c(=O)c2CC1 [NCGC00440589] | – | – | – | – | – | – | – | Average P. berghei 3 µM response( %) ([1]; P. berghei liver stage): 112%; Average P. berghei 1 µM response (%) ([1]; P. berghei liver stage): 99%; Average HepG2 3 µM response( %) (HepG2-A16-CD81EGFP cells; HepG2, 3 µM dose): 100%; Average HepG2 3 µM response( %) (HepG2-A16-CD81EGFP cells; [7]): 102% |
| Cc1cc(C)n(Cc2ccc(C(=O)N3CCC(c4noc(-c5cccnc5)n4)C3)o2)n1 (centres unmarked) [NCGC00441856] | – | – | – | – | – | – | – | Average P. berghei 3 µM response( %) ([1]; P. berghei liver stage): 100%; Average P. berghei 1 µM response (%) ([1]; P. berghei liver stage): 107%; Average HepG2 3 µM response( %) (HepG2-A16-CD81EGFP cells; HepG2, 3 µM dose): 104%; Average HepG2 3 µM response( %) (HepG2-A16-CD81EGFP cells; [7]): 103% |
| Cc1ccc(Nc2cc(C)nc(NCc3ccccc3)n2)cc1 [MLS000574704-01] | – | – | – | – | – | – | – | activity at 1 µM ([1]; Plasmodium berghei, P. berghei liver stage, 1 µM compound treatment (10 mM stocks), replicate 1, normalized, read-out: PbLuc 1uM growth rep1): 61%; activity at 1 µM ([1]; Plasmodium berghei, P. berghei liver stage, 1 µM compound treatment (10 mM stocks), replicate 2, normalized, read-out: PbLuc 1uM growth rep2): 54%; activity at 3 µM ([1]; Plasmodium berghei, P. berghei liver stage, 3 µM compound treatment (10 mM stocks), replicate 1, normalized, read-out: PbLuc 3uM growth rep1): 31%; activity at 3 µM ([1]; Plasmodium berghei, P. berghei liver stage, 3 µM compound treatment (10 mM stocks), replicate 2, normalized, read-out: PbLuc 3uM growth rep2): 43%; HepG2 1uM growth rep1 (HepG2-A16-CD81EGFP cells): 83%; HepG2 1uM growth rep2 (HepG2-A16-CD81EGFP cells): 84%; HepG2 3uM growth rep1 (HepG2-A16-CD81EGFP cells): 81%; HepG2 3uM growth rep2 (HepG2-A16-CD81EGFP cells): 80% |
| C=C(C)CSc1nc2sc3c(c2c(=O)n1-c1ccc(C)cc1)CCN(C)C3 [MLS001173676-01] | – | – | – | – | – | – | – | PbLuc 1uM growth rep1 [1, 3]: 91%; PbLuc 1uM growth rep2 [1, 4]: 84%; PbLuc 3uM growth rep1 [1, 5]: 44%; PbLuc 3uM growth rep2 [1, 6]: 74%; HepG2 1uM growth rep1 (HepG2-A16-CD81EGFP cells): 102%; HepG2 1uM growth rep2 (HepG2-A16-CD81EGFP cells): 92%; HepG2 3uM growth rep1 (HepG2-A16-CD81EGFP cells): 84%; HepG2 3uM growth rep2 (HepG2-A16-CD81EGFP cells): 90% |
| CC(C)N(Cc1ccccc1)C(=O)CN1C(=O)COc2ccc(S(=O)(=O)N3CCCCCC3)cc21 [MLS001124552-01] | – | – | – | – | – | – | – | PbLuc 1uM growth rep1 [1, 3]: 121%; PbLuc 1uM growth rep2 [1, 4]: 115%; PbLuc 3uM growth rep1 [1, 5]: 113%; PbLuc 3uM growth rep2 [1, 6]: 144%; HepG2 1uM growth rep1 (HepG2-A16-CD81EGFP cells): 91%; HepG2 1uM growth rep2 (HepG2-A16-CD81EGFP cells): 91%; HepG2 3uM growth rep1 (HepG2-A16-CD81EGFP cells): 88%; HepG2 3uM growth rep2 (HepG2-A16-CD81EGFP cells): 90% |
| CCSc1nc2sc3c(c2c(=O)n1-c1ccccc1)CCN(C(C)C)C3 [MLS001173590-01] | – | – | – | – | – | – | – | PbLuc 1uM growth rep1 [1, 3]: 97%; PbLuc 1uM growth rep2 [1, 4]: 84%; PbLuc 3uM growth rep1 [1, 5]: 60%; PbLuc 3uM growth rep2 [1, 6]: 65%; HepG2 1uM growth rep1 (HepG2-A16-CD81EGFP cells): 104%; HepG2 1uM growth rep2 (HepG2-A16-CD81EGFP cells): 95%; HepG2 3uM growth rep1 (HepG2-A16-CD81EGFP cells): 87%; HepG2 3uM growth rep2 (HepG2-A16-CD81EGFP cells): 98% |
| CC(C)(C)OC(=O)N1CCC(CC2CC(c3ccccc3)=NO2)(C(=O)NCc2ccccc2)CC1 (centres unmarked) [MLS002174287-01] | 2.66 | 140 | 108 | 65 | 115 | 111 | 95 | – |
| CC1CCCN(Cc2c(O)ccc3c(=O)c(-c4ccc(Cl)cc4)coc23)C1 (centres unmarked) [MLS001196099-01] | 1.88 | 102 | 123 | 105 | 96 | 113 | 99 | – |
| Cc1[nH]c2c(C)cccc2c(=O)c1Br [MLS000036254-01] | 5.31 | – | – | – | – | 107 | – | Max Resp (signal direction of the dose response) ([1]; Method 1): Decrease; AC50 ([1]; Method 1, Hill fit, 50% of maximum activity response, read-out: AC50): 1580 nM; Log AC50 (M) ([1]; Method 1, log10 of molar AC50 from Hill fit): -5.800 M; AC50 [1, 12]: 1120 nM; AC50 [1, 13]: 1120 nM; viability at 48 h (in vitro): 107% |
| COc1cc(C#Cc2c(-c3cncn3C)n(C)c3ccc(-c4ccc5[nH]ccc5c4)cc23)cc(OC)c1 [MLS002391601-01] | 2.37 | 112 | 94 | 111 | 101 | 105 | 102 | – |
| Cn1c(S)nc2sc3c(c2c1=O)CCC(C(C)(C)C)C3 (centres unmarked) [MLS001198408-01] | 5.31 | 80 | 94 | 69 | 61 | 97 | 107 | – |
| CCOC(=O)c1cnc2c(C)cc(C)cc2c1O [MLS000530578-01] | 4.22 | – | – | – | – | – | – | AC50 [1, 12]: 1410 nM; AC50 [1, 13]: 1410 nM; viability at 66 h (in vitro): 104% |
| Cc1ccc(C)c(NC(=O)CN(C)C(=O)c2ccc(-c3ccc(Cl)cc3)o2)c1 [MLS001077062-01] | 4.73 | 137 | 128 | 154 | 145 | 98 | 102 | – |
| CCOC(=O)c1nnn(-c2nonc2-n2cccc2)c1CN1CCC(C(=O)OCC)CC1 [MLS000538888-01] | 4.73 | 103 | 96 | 92 | 82 | 108 | 103 | – |
| CCCCCCCNC(=O)C1(CC2CC(c3ccc(Cl)cc3)=NO2)CCN(C(=O)c2cc(OCC)c(OCC)c(OCC)c2)CC1 (centres unmarked) [MLS001143958-01] | 3.35 | – | – | – | – | 103 | – | Max Resp (signal direction of the dose response) ([1]; Method 1): Decrease; AC50 [1, 12]: 2820 nM; AC50 [1, 13]: 2820 nM; viability at 48 h (in vitro): 103% |
| COc1ccc(S(=O)(=O)N2CCC3(CC2)OCCN3S(=O)(=O)c2c(C)cc(C)cc2C)cc1 [MLS001237293-01] | 2.66 | 88 | 81 | 87 | 75 | 108 | 103 | – |
| COCC(C)n1c(C)cc(C(=O)CSc2nnc(Nc3ccccc3F)s2)c1C (centres unmarked) [MLS000566129-01] | 2.99 | 126 | 124 | 118 | 120 | 95 | 101 | – |
